The subject of one test is Klebsiella pneumoniae. The experiment in a line: Antibacterial activity against Klebsiella pneumoniae ATCC 29665 assessed as minimum inhibitory concentration incubated for 16 to 18 hrs by broth microdilution method. Format: functional. The following applies: time 16-18 hrs. A general note: In broth dilution the organism is exposed to a series of concentrations in liquid medium.

In the next test the test system is Enterococcus faecalis. The experiment in a line: Antibacterial activity against Enterococcus faecalis ATCC 29212 assessed as minimum inhibitory concentration incubated for 24 hrs by broth microdilution method. The test is classed as functional.

Our source for the MIC90 values is ChEMBL document CHEMBL5344464, “Forgotten Natural Products: Semisynthetic Development of Blasticidin S As an Antibiotic Lead” (ACS Med Chem Lett, 2024).

Values after ≈ are worked out from the molar mass of the structure shown.

As to `CCCNC(=O)[C@H]1O[C@@H](n2ccc(N)nc2=O)C=C[C@@H]1NC(=O)C[C@@H](N)CCN(C)C(=N)N`, the MIC90 (in general, an inhibitory concentration at the 90% level, which refers to growth in some studies and to a panel of isolates in others) in the test on Klebsiella pneumoniae was found to be 128 µg/mL (≈ 276 µM).
Take `CNC(=O)[C@H]1O[C@@H](n2ccc(N)nc2=O)C=C[C@@H]1NC(=O)C[C@@H](N)CCN(C)C(=N)N`: in the test with Enterococcus faecalis, the MIC90 is 16 µg/mL (≈ 36.7 µM).
As for `CN(C)C(=O)[C@H]1O[C@@H](n2ccc(N)nc2=O)C=C[C@@H]1NC(=O)C[C@@H](N)CCN(C)C(=N)N`, the MIC90 in the test on Enterococcus faecalis was found to be 16 µg/mL (≈ 35.6 µM).
On the same count and under the same terms, to `CN(CC[C@H](N)CC(=O)N[C@H]1C=C[C@H](n2ccc(N)nc2=O)O[C@@H]1C(=O)O)C(=N)N` [BLASTICIDIN_S] belongs 32 µg/mL (≈ 75.7 µM).
